Test results from ChEMBL document CHEMBL4359923, “One-step Heck Reaction Generates Nonimmunosuppressive FK506 Analogs for Pharmacological BMP Activation” (ACS Med Chem Lett, 2019).
Active and inactive are the calls of the source. No cut-off for these calls is given here.

How the values were obtained:
HUVEC [1] = test: Cytotoxicity against human HUVEC cells assessed as inhibition of cell growth at 10 uM measured after 72 hrs by resazurin dye based assay
[2] = target: T1, Peptidyl-prolyl cis-trans isomerase FKBP1A (Homo sapiens, UniProt P62942); test: Inhibition of FKBP12-mediated calcineurin activation in PMA/ionomycin stimulated human Jurkat cells transfected with NFAT-Luc assessed as reduction in NFAT reporter activity at 1 uM pretreated for 30 mins prior to PMA/ionomycin activation measured after 6 hrs by luciferase reporter assay; assay type: cell-based
[3] = target: T1, Peptidyl-prolyl cis-trans isomerase FKBP1A; test: Activation of FKBP12-mediated BMP signaling pathway in human Jurkat cells transfected with BRE-Luc at 1 nM to 1 uM measured after 18 hrs by luciferase reporter assay; assay type: cell-based
HUVEC [4] = test: Cytotoxicity against human HUVEC cells assessed as inhibition of cell growth at 1 to 10 uM measured after 72 hrs by resazurin dye based assay
[5] = target: T1, Peptidyl-prolyl cis-trans isomerase FKBP1A; test: Inhibition of FKBP12-mediated calcineurin activation in PMA/ionomycin stimulated human Jurkat cells transfected with NFAT-Luc assessed as NFAT reporter activity up to 10 uM pretreated for 30 mins prior to PMA/ionomycin activation measured after 6 hrs by luciferase reporter assay; assay type: cell-based
[6] = target: T1, Peptidyl-prolyl cis-trans isomerase FKBP1A; test: Induction of FKBP12-mediated SMAD1/5 phosphorylation in human Jurkat cells measured after 2 hrs by Western blot analysis; assay type: cell-based

T1 sequence (P62942 whole entry): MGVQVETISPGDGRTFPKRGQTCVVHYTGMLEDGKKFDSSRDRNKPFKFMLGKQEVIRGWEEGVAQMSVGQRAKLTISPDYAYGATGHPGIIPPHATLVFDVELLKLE

SMILES | inhibition (INH) [2] | Activity [3] | inhibition (INH) [5] | Activity [6] | Activity (HUVEC [1]) | Activity (HUVEC [4])
CO[C@H]1C[C@@H](C)C/C(C)=C/[C@@H](C/C=C/c2ccnc3cc(F)ccc23)C(=O)C[C@H](O)[C@@H](C)[C@@H](/C(C)=C/[C@@H]2CC[C@@H](O)[C@H](OC)C2)OC(=O)[C@@H]2CCCCN2C(=O)C(=O)[C@]2(O)O[C@H]1[C@@H](OC)C[C@H]2C | Active | Active |  |  | Toxic | 
CO[C@H]1C[C@@H](C)C/C(C)=C/[C@@H](C/C=C/c2ccncc2F)C(=O)C[C@H](O)[C@@H](C)[C@@H](/C(C)=C/[C@@H]2CC[C@@H](O)[C@H](OC)C2)OC(=O)[C@@H]2CCCCN2C(=O)C(=O)[C@]2(O)O[C@H]1[C@@H](OC)C[C@H]2C | Active | Active |  |  |  | Toxic
CO[C@H]1C[C@@H](C)C/C(C)=C/[C@@H](C/C=C/c2ccnc3c(F)c(F)ccc23)C(=O)C[C@H](O)[C@@H](C)[C@@H](/C(C)=C/[C@@H]2CC[C@@H](O)[C@H](OC)C2)OC(=O)[C@@H]2CCCCN2C(=O)C(=O)[C@]2(O)O[C@H]1[C@@H](OC)C[C@H]2C | Active | Active |  |  | Toxic | 
CO[C@H]1C[C@@H](C)C/C(C)=C/[C@@H](C/C=C/c2ccnc3ccccc23)C(=O)C[C@H](O)[C@@H](C)[C@@H](/C(C)=C/[C@@H]2CC[C@@H](O)[C@H](OC)C2)OC(=O)[C@@H]2CCCCN2C(=O)C(=O)[C@]2(O)O[C@H]1[C@@H](OC)C[C@H]2C | Active | Active |  |  | Toxic | 
C=CC[C@@H]1/C=C(\C)C[C@H](C)C[C@H](OC)[C@H]2O[C@@](O)(C(=O)C(=O)N3CCCC[C@H]3C(=O)O[C@H](/C(C)=C/[C@@H]3CC[C@@H](O)[C@H](OC)C3)[C@H](C)[C@@H](O)CC1=O)[C@H](C)C[C@@H]2OC [TACROLIMUS ANHYDROUS] | Active | Active |  | Dose-dependent effect |  | Toxic

More lines, main results first:

inhibition (INH) [2] | Activity [3] | inhibition (INH) [5] | Activity [6] | SMILES | Activity (HUVEC [1]) | Activity (HUVEC [4])
Active | Active |  |  | CO[C@H]1C[C@@H](C)C/C(C)=C/[C@@H](C/C=C/c2ccccc2N)C(=O)C[C@H](O)[C@@H](C)[C@@H](/C(C)=C/[C@@H]2CC[C@@H](O)[C@H](OC)C2)OC(=O)[C@@H]2CCCCN2C(=O)C(=O)[C@]2(O)O[C@H]1[C@@H](OC)C[C@H]2C |  | Toxic
 | Active | Not Active | Dose-dependent effect | CO[C@H]1C[C@@H](C)C/C(C)=C/[C@@H](C/C=C/c2ccncc2)C(=O)C[C@H](O)[C@@H](C)[C@@H](/C(C)=C/[C@@H]2CC[C@@H](O)[C@H](OC)C2)OC(=O)[C@@H]2CCCCN2C(=O)C(=O)[C@]2(O)O[C@H]1[C@@H](OC)C[C@H]2C |  | Toxic
Active | Active |  |  | CO[C@H]1C[C@@H](C)C/C(C)=C/[C@@H](C/C=C/c2cccc(N)c2)C(=O)C[C@H](O)[C@@H](C)[C@@H](/C(C)=C/[C@@H]2CC[C@@H](O)[C@H](OC)C2)OC(=O)[C@@H]2CCCCN2C(=O)C(=O)[C@]2(O)O[C@H]1[C@@H](OC)C[C@H]2C |  | Toxic
 | Active | Not Active | Dose-dependent effect | CO[C@H]1C[C@@H](C)C/C(C)=C/[C@@H](C/C=C/c2ccnc(N)c2)C(=O)C[C@H](O)[C@@H](C)[C@@H](/C(C)=C/[C@@H]2CC[C@@H](O)[C@H](OC)C2)OC(=O)[C@@H]2CCCCN2C(=O)C(=O)[C@]2(O)O[C@H]1[C@@H](OC)C[C@H]2C |  | Toxic
Active | Active |  |  | CO[C@H]1C[C@@H](C)C/C(C)=C/[C@@H](C/C=C/c2ccc(N)cc2)C(=O)C[C@H](O)[C@@H](C)[C@@H](/C(C)=C/[C@@H]2CC[C@@H](O)[C@H](OC)C2)OC(=O)[C@@H]2CCCCN2C(=O)C(=O)[C@]2(O)O[C@H]1[C@@H](OC)C[C@H]2C |  | Toxic
Active | Active |  |  | CNc1ccc(/C=C/C[C@@H]2/C=C(\C)C[C@H](C)C[C@H](OC)[C@H]3O[C@@](O)(C(=O)C(=O)N4CCCC[C@H]4C(=O)O[C@H](/C(C)=C/[C@@H]4CC[C@@H](O)[C@H](OC)C4)[C@H](C)[C@@H](O)CC2=O)[C@H](C)C[C@@H]3OC)cc1 |  | Toxic
 | Active | Not Active | Dose-dependent effect | CO[C@H]1C[C@@H](C)C/C(C)=C/[C@@H](C/C=C/c2ccncc2N)C(=O)C[C@H](O)[C@@H](C)[C@@H](/C(C)=C/[C@@H]2CC[C@@H](O)[C@H](OC)C2)OC(=O)[C@@H]2CCCCN2C(=O)C(=O)[C@]2(O)O[C@H]1[C@@H](OC)C[C@H]2C |  | Toxic
